Laboratory results: PMC12584752, “Covalent fragment screening to inhibit the E3 ligase activity of bacterial NEL enzymes SspH1 and SspH2” (RSC Chemical Biology, 2025)

Experiments:
glutathione = assay: Glutathione reactivity assay; format: physicochemical; details: 6 mM glutathione in PBS, 40 °C; read-out: GSH t1/2 (converted)
Method: 10 mM DMSO stocks of compounds 6 and 7 were diluted 20-fold with acetonitrile, and then further 5-fold diluted with 6 mM glutathione in PBS. The reaction was shaken before incubation at 40 °C. The reaction mixture was analysed via UPLC-UV-MS up to eight times across 24 hours, compared to known reference compounds and samples of each compound in distilled water. UPLC conditions: flow rate: 800 μL min^−1; column: acquity UPLC BEH C18 1.7 μm 2.1 × 50 mm; column temperature: 37 °C; mobile phase A: 0.1% formic acid in H2O; mobile phase B: 0.1% formic acid in 100% ACN; run time: 2 minutes; gradient elution: 97% A to 0% A; UV conditions: 210 to 350 nm range; MS conditions: single quad, ESI+, scan range: 50–1000 Da. For each time point, the UV peak area of the parent peak was extracted at a single wavelength (e.g., 254 nm). A pseudo-first-order rate constant (k) for each compound was determined from the slope of a linear regression fit for a plot of the […] peak area of the parent compound versus the time differential for the eight time points; the t1/2 is calculated as follows: t1/2 = 0.693/k.

SspH1 (161–700) = SspH1 (161–700) (Salmonella typhimurium, UniProt D0ZVG2); assay: E2–Ub discharge assay; format: biochemical; set-up: Recombinant IpaH9.8 (21–545) and SspH1 (161–700) were incubated at 0.5 μM; His-tag (N, cleaved yes); made in house; host or cells: E. coli BL21; details: SspH1 pre-labelled with compound overnight at RT; UbcH5A–Ub-cy3 1 μM, 0–30 minutes
Description: We next wanted to understand whether compounds 6 and 7 interfered with SspH1 E3 activity and turned to in vitro assays to assess E3 ligase activity. In the absence of substrate, NEL E3 ligases non-productively discharge ubiquitin from the E2–Ub thioester, a reaction that proceeds via an unstable E3-thioester intermediate.[27] This activity can be followed by E2–Ub discharge assays (Fig. 4A). We compared discharge activity of SspH1 with UbcH5A–Ub-cy3 (E2–Ub*) pre-treated with a DMSO control or compounds 6 or 7 (Fig. 4B). To ensure complete compound labelling, SspH1 was pre-incubated with the compounds overnight at room temperature, as opposed to at 4 °C which enabled us to study kinetics previously.
Fig. 4 SspH1 in vitro inhibition with compounds 6 and 7. (A) Discharge assay schematic; (B) E2–Ub discharge time course assay with SspH1 pre-treated with either DMSO or compounds 6 or 7. UbcH5A–Ub-cy3 (1 μM) was incubated at RT for 0–30 minutes with SspH1 (residues 161–700, 50 nM) which had been pre-labelled with 6 or 7 at RT overnight. (C) Substrate ubiquitination assay schematic; (D) PKN1 ubiquitination time course assay with SspH1 pre-treated with either DMSO or compounds 6 or 7. […]

Chain of SspH1 (161–700) (D0ZVG2 161-700): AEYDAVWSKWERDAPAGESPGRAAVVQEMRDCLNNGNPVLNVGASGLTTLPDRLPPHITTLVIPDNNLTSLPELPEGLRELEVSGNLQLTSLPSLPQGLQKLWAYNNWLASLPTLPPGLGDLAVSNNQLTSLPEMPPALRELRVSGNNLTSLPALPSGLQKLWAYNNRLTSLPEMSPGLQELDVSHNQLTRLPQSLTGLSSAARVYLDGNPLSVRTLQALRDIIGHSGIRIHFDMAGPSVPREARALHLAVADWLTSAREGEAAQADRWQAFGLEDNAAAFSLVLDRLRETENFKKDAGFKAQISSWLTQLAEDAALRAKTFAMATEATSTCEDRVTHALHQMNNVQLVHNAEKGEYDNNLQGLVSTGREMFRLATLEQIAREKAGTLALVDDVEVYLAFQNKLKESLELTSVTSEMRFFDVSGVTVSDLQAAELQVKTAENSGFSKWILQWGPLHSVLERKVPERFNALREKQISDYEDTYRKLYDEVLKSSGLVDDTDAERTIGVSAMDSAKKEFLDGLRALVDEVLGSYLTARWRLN

SMILES | half-life at 100 µM (glutathione) [h] | SspH1 E2–Ub discharge activity (SspH1 (161–700))
Cc1cc(-c2nc3ccccc3n2C2CCN(C(=O)CCl)CC2)cc(C)c1O.Cl [compound 6] | 4.9 | completely abrogated
Cl.O=C(CCl)N1CCC(n2c(-c3ccc(C(F)(F)F)cc3)nc3ccccc32)CC1 [compound 7] | 4 | completely abrogated
